Data reported in patent publication USH1923H, “Herbicidal (oxaalkyl) phenyl-substituted heterocycles” (FMC Corporation, priority 1998, dated 2000).

Legend:
cocklebur [1] = test: preemergence herbicidal activity on cocklebur; type: in vivo, Xanthium strumarium L.; settings: Xanthium strumarium, pre-emergence, 0.3 Kg/Ha, after 12-17 days, read-out: PREEMERGENCE HERBICIDAL ACTIVITY (% CONTROL) XANPE
Description: (§1) The (oxaalkyl)phenyl-substituted heterocycles of this invention were tested for pre- and postemergence herbicidal activity using a variety of crops and weeds. The test plants included soybean (Glycine max var. Winchester),field corn (Zea mays var. Pioneer 3732), wheat (Triticum aestivum var. Lew), morningglory (Ipomea lacunosa or Ipomea hederacea), […] (Abutilon theophrasti), green foxtail (Setaria viridis), Johnsongrass (Sorghum halepense), blackgrass (Aloepecurus myosuroides), common chickweed (Stellaria media), and common cocklebur (Xanthium strumarium L.).
(§2) For preemergence testing, two disposable fiber flats (8 cm×15 cm×25 cm) for each rate of application of each candidate herbicide were filled to an approximate depth of 6.5 cm with steam-sterilized sandy loam soil. The soil was leveled and impressed with a template to provide five evenly spaced furrows 13 cm long and 0.5 cm deep in each flat. Seeds of soybean, wheat, corn, green foxtail, and johnsongrass were planted in the furrows of the first flat, and seeds of velvetleaf, morningglory, common chickweed, cocklebur, and blackgrass were planted in the furrows of the second flat. The five-row template was employed to firmly press the seeds into place. A topping soil of equal portions of sand and sandy loam soil was placed uniformly on top of each flat to a depth of approximately 0.5 cm. Flats for postemergence testing were prepared in the same manner except that they were planted 9-14 days prior to the preemergence flats and were placed in a greenhouse and watered, thus allowing the seeds to germinate and the foliage to develop.
(§3) In both pre- and postemergence tests, a stock solution of the candidate herbicide was prepared by dissolving 0.27 g of the compound in 20 mL of water/acetone (50/50) containing 0.5% v/v sorbitan monolaurate. For an application rate of 3000 g/ha of herbicide a 10 mL portion of the stock solution was diluted with water/acetone (50/50) to 45 mL.
(§4) The preemergence flats were initially subjected to a light water spray. The four flats were placed two by two along a conveyor belt (i.e., the two preemergence followed by the two postemergence flats). The conveyor belt fed under a spray nozzle mounted about ten inches above the postemergent foliage. The preemergent flats were elevated on the belt so that the soil surface was at the same level below the spray nozzle as the foliage canopy of the postemergent plants. The spray of herbicidal solution was commenced and once stabilized, the flats were passed under the spray at a speed to receive a coverage equivalent of 1000 L/ha. At this coverage the application rates are those shown in the above table for the individual herbicidal solutions. The preemergence flats were watered immediately thereafter, placed in the greenhouse and watered regularly at the soil surface. The postemergence flats were immediately placed in the green-house and not watered until 24 hours after treatment with the test solution. Thereafter they were regularly watered at ground level. After 12-17 days the plants were examined and the phytotoxicity data were recorded.
(§5) Phytotoxicity data were taken as percent control. Percent control was by a method similar to the 0 to 1 00 rating system disclosed in "Research Methods in Weed Science," 2nd ed., B. Truelove, Ed.; Southern Weed Science Society; Auburn University, Auburn, Ala., 1977.

velvetleaf [2] = test: preemergence herbicidal activity on velvetleaf; type: in vivo; settings: Abutilon theophrasti, pre-emergence, 0.3 Kg/Ha, after 12-17 days, read-out: PREEMERGENCE HERBICIDAL ACTIVITY (% CONTROL) ABUTH
Description: as §1, §2, §3, §4, §5

blackgrass [3] = test: postemergence herbicidal activity on blackgrass; type: in vivo, Aloepecurus myosuroides; settings: Alopecurus myosuroides, post-emergence, 0.3 Kg/Ha, after 12-17 days, read-out: POSTEMERGENCE HERBICIDAL ACTIVITY (% CONTROL) ALOMY
Description: as §1, §2, §3, §4, §5

green foxtail [4] = test: preemergence herbicidal activity on green foxtail; type: in vivo; settings: Setaria viridis, pre-emergence, 0.3 Kg/Ha, after 12-17 days, read-out: PREEMERGENCE HERBICIDAL ACTIVITY (% CONTROL) SETVI
Description: as §1, §2, §3, §4, §5

wheat [5] = test: preemergence herbicidal activity on wheat; type: in vivo, Triticum aestivum var. Lew; settings: Triticum aestivum, pre-emergence, 0.3 Kg/Ha, after 12-17 days, read-out: PREEMERGENCE HERBICIDAL ACTIVITY (% CONTROL) WHT
Description: as §1, §2, §3, §4, §5

morningglory [6] = test: postemergence herbicidal activity on morningglory; type: in vivo, Ipomea lacunosa or Ipomea hederacea; settings: Ipomoea, post-emergence, 0.3 Kg/Ha, after 12-17 days, read-out: POSTEMERGENCE HERBICIDAL ACTIVITY (% CONTROL) IPOSS
Description: as §1, §2, §3, §4, §5

chickweed [7] = test: postemergence herbicidal activity on chickweed; type: in vivo; settings: Stellaria media, post-emergence, 0.3 Kg/Ha, after 12-17 days, read-out: POSTEMERGENCE HERBICIDAL ACTIVITY (% CONTROL) STEME
Description: as §1, §2, §3, §4, §5

morningglory [8] = test: preemergence herbicidal activity on morningglory; type: in vivo, Ipomea lacunosa or Ipomea hederacea; settings: Ipomoea, pre-emergence, 0.3 Kg/Ha, after 12-17 days, read-out: PREEMERGENCE HERBICIDAL ACTIVITY (% CONTROL) IPOSS
Description: as §1, §2, §3, §4, §5

green foxtail [9] = test: postemergence herbicidal activity on green foxtail; type: in vivo; settings: Setaria viridis, post-emergence, 0.3 Kg/Ha, after 12-17 days, read-out: POSTEMERGENCE HERBICIDAL ACTIVITY (% CONTROL) SETVI
Description: as §1, §2, §3, §4, §5

chickweed [10] = test: preemergence herbicidal activity on chickweed; type: in vivo; settings: Stellaria media, pre-emergence, 0.3 Kg/Ha, after 12-17 days, read-out: PREEMERGENCE HERBICIDAL ACTIVITY (% CONTROL) STEME
Description: as §1, §2, §3, §4, §5

soybean [11] = test: preemergence herbicidal activity on soybean; type: in vivo, Glycine max var. Winchester; settings: Glycine max, pre-emergence, 0.3 Kg/Ha, after 12-17 days, read-out: PREEMERGENCE HERBICIDAL ACTIVITY (% CONTROL) SOY
Description: as §1, §2, §3, §4, §5

corn [12] = test: postemergence herbicidal activity on corn; type: in vivo, Zea mays var. Pioneer 3732; settings: Zea mays, post-emergence, 0.3 Kg/Ha, after 12-17 days, read-out: POSTEMERGENCE HERBICIDAL ACTIVITY (% CONTROL) CRN
Description: as §1, §2, §3, §4, §5

velvetleaf [13] = test: postemergence herbicidal activity on velvetleaf; type: in vivo; settings: Abutilon theophrasti, post-emergence, 0.3 Kg/Ha, after 12-17 days, read-out: POSTEMERGENCE HERBICIDAL ACTIVITY (% CONTROL) ABUTH
Description: as §1, §2, §3, §4, §5

cocklebur [14] = test: postemergence herbicidal activity on cocklebur; type: in vivo, Xanthium strumarium L.; settings: Xanthium strumarium, post-emergence, 0.3 Kg/Ha, after 12-17 days, read-out: POSTEMERGENCE HERBICIDAL ACTIVITY (% CONTROL) XANPE
Description: as §1, §2, §3, §4, §5

johnsongrass [15] = test: postemergence herbicidal activity on johnsongrass; type: in vivo; settings: Sorghum halepense, post-emergence, 0.3 Kg/Ha, after 12-17 days, read-out: POSTEMERGENCE HERBICIDAL ACTIVITY (% CONTROL) SORHA
Description: as §1, §2, §3, §4, §5

johnsongrass [16] = test: preemergence herbicidal activity on johnsongrass; type: in vivo; settings: Sorghum halepense, pre-emergence, 0.3 Kg/Ha, after 12-17 days, read-out: PREEMERGENCE HERBICIDAL ACTIVITY (% CONTROL) SORHA
Description: as §1, §2, §3, §4, §5

soybean [17] = test: postemergence herbicidal activity on soybean; type: in vivo, Glycine max var. Winchester; settings: Glycine max, post-emergence, 0.3 Kg/Ha, after 12-17 days, read-out: POSTEMERGENCE HERBICIDAL ACTIVITY (% CONTROL) SOY
Description: as §1, §2, §3, §4, §5

corn [18] = test: preemergence herbicidal activity on corn; type: in vivo, Zea mays var. Pioneer 3732; settings: Zea mays, pre-emergence, 0.3 Kg/Ha, after 12-17 days, read-out: PREEMERGENCE HERBICIDAL ACTIVITY (% CONTROL) CRN
Description: as §1, §2, §3, §4, §5

wheat [19] = test: postemergence herbicidal activity on wheat; type: in vivo, Triticum aestivum var. Lew; settings: Triticum aestivum, post-emergence, 0.3 Kg/Ha, after 12-17 days, read-out: POSTEMERGENCE HERBICIDAL ACTIVITY (% CONTROL) WHT
Description: as §1, §2, §3, §4, §5

blackgrass [20] = test: preemergence herbicidal activity on blackgrass; type: in vivo, Aloepecurus myosuroides; settings: Alopecurus myosuroides, pre-emergence, 0.3 Kg/Ha, after 12-17 days, read-out: PREEMERGENCE HERBICIDAL ACTIVITY (% CONTROL) ALOMY
Description: as §1, §2, §3, §4, §5

Compound	activity at 300 g/ha (cocklebur [1]) [%]	activity at 300 g/ha (velvetleaf [2]) [%]	activity at 300 g/ha (blackgrass [3]) [%]	activity at 300 g/ha (green foxtail [4]) [%]	activity at 300 g/ha (wheat [5]) [%]	activity at 300 g/ha (morningglory [6]) [%]	activity at 300 g/ha (chickweed [7]) [%]	activity at 300 g/ha (morningglory [8]) [%]	activity at 300 g/ha (green foxtail [9]) [%]	activity at 300 g/ha (chickweed [10]) [%]	activity at 300 g/ha (soybean [11]) [%]	activity at 300 g/ha (corn [12]) [%]	activity at 300 g/ha (velvetleaf [13]) [%]	activity at 300 g/ha (cocklebur [14]) [%]	activity at 300 g/ha (johnsongrass [15]) [%]	activity at 300 g/ha (johnsongrass [16]) [%]	activity at 300 g/ha (soybean [17]) [%]	activity at 300 g/ha (corn [18]) [%]	activity at 300 g/ha (wheat [19]) [%]	activity at 300 g/ha (blackgrass [20]) [%]
Cc1nn(-c2cc(CC(Cl)C(C)(C)O)c(Cl)cc2F)c(=O)n1C(F)F (centres unmarked) [Compound 2]	60	100	70	100	70	100	70	100	80	90	60	80	100	55	80	90	80	80	60	70
Cc1nn(-c2cc(CC(Cl)CO)c(Cl)cc2F)c(=O)n1C(F)F (centres unmarked) [Compound 24]	95	100	30	100	50	100	10	100	80		30	80	100	100	80	65	80	70	30	10
CC(=O)OC(C)(C)C(Cl)Cc1cc(-n2c(=O)cc(C(F)(F)F)n(C)c2=O)c(F)cc1Cl (centres unmarked) [Compound 16, 2-CHLORO-3-METHYL-1-[2-CHLORO-4-FLUORO-5-[1-METHYL-6-TRIFLUOROMETHYL-2,4(1H,3H)-PYRIMIDINDION-3-YL]PHENYL]BUTAN-3-YL ACETATE]	100	100	100	100	70	90	100	100	100	100	100	90	100	100	100	100	95	90	60	
CC(=O)OC(C)(C)C(Cl)Cc1cc(-n2nc(C)n(C(F)F)c2=O)c(F)cc1Cl (centres unmarked) [Compound 17]	80	100	80	80	50	100	100	100	100	95	70	90	100	60	100	100	80	85	50	
